Experimental findings from ChEMBL document CHEMBL3352145, “Structure-based design of novel human Pin1 inhibitors (III): optimizing affinity beyond the phosphate recognition pocket” (Bioorg Med Chem Lett, 2014) are described below.

Data set [1] can be described thus: Lipophilicity, log P of the compound. Format: physicochemical. The settings on record: octanol/water.
Data set [2] is described as follows: Dissociation constant, pKa of the compound. Format: physicochemical.
Data set [3] addresses Peptidyl-prolyl cis-trans isomerase NIMA-interacting 1 (Homo sapiens, UniProt Q13526). As to the kind of experiment: Inhibition of Pin1 (unknown origin).
A short description of data set [4]: Aqueous solubility of the compound. Format: physicochemical. As to conditions: buffer.
For data set [5], the system named is HT-29. Briefly: Antiproliferative activity against human HT-29 cells. Format: functional, cell-based.
Data set [6] deals with HT-29. As to the kind of experiment: Cell cycle arrest in human HT-29 cells assessed as cells accumulation at S phase at 50 uM by FACS analysis (reference value: 37%). Format: functional.
The subject of data set [7] is HT-29. Briefly: Induction of histological changes in human HT-29 cells assessed as fragmented phenotype at 50 uM by DAPI staining. Format: functional, cell-based.
The test system of data set [8] is HT-29. As to the kind of experiment: Cell cycle arrest in human HT-29 cells assessed as cells accumulation at G0/G1 phase at 50 uM by FACS analysis (reference value: 56.9%). Format: functional. For orientation: A flow cytometer gives signals particle by particle.
Data set [9] deals with HT-29. As to the kind of experiment: Cell cycle arrest in human HT-29 cells assessed as cells accumulation at sub G1 phase at 50 uM by FACS analysis (Rvb =<1%). Format: functional.
Data set [10] deals with HT-29. Briefly: Cell cycle arrest in human HT-29 cells assessed as cells accumulation at G2/M phase at 50 uM by FACS analysis (reference value: 6.2%). Format: functional.

Converted amounts (≈) assume the structure as drawn. The source made the active and inactive calls. The calls are words filed in the database; no cut-off is given here.

Broadly, the logP is the decadic logarithm of the partition coefficient of the neutral form, usually between octanol and water. The low end stands for lower lipophilicity, the high end for higher lipophilicity. For orientation: pKa means the negative logarithm of the acid dissociation constant. The low end stands for a group that gives up its proton readily, the high end for a group that holds its proton tightly. In general, Ki refers to the equilibrium dissociation constant of an inhibitor or competing ligand from its target. Lower therefore signals tighter binding. What is called solubility is the dissolved amount per volume that the medium holds. Low readings indicate a poorly soluble substance, high ones a readily soluble substance. The term IC50 denotes the concentration at which inhibition is half-maximal. Low readings indicate greater potency, high ones weaker potency.

Sequence of Peptidyl-prolyl cis-trans isomerase NIMA-interacting 1 (Q13526 whole entry): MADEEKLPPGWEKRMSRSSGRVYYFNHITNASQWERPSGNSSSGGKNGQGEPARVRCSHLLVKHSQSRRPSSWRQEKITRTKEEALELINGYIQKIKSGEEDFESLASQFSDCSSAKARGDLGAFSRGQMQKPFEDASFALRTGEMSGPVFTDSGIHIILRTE

`O=C(CC1c2ccccc2-c2ccccc21)N[C@H](Cc1cc2ccc(F)cc2[nH]1)C(=O)O`: in [1], the logP was 3.6. The compound further registered a pKa in [2] of 3.9. In [3], this compound yielded a Ki of 12 nM. In data set [4], the solubility was > 100 µg/mL.

Turning to `O=C(N[C@H](Cc1nc2cc(Cl)ccc2[nH]1)C(=O)O)c1ccc2ccccc2c1`, affinity in [3] was put at a Ki of 173 nM.

In [1], `O=C(CCc1c(Cl)cccc1Cl)N[C@H](Cc1cc2ccc(F)cc2[nH]1)C(=O)O` came in with a logP of 3.5. Also, the pKa in data set [2] is 3.9. This compound registered a Ki in [3] of 75 nM. Also, the solubility in [4] is > 100 µg/mL.

The compound `O=C(N[C@H](Cc1nc2cc(Cl)ccc2[nH]1)C(=O)O)c1cc2ccccc2s1` had a Ki in [3] of 189 nM.

In [3], `O=C(N[C@H](Cc1nc2ccccc2s1)C(=O)O)c1ccc2ccccc2c1` registered a Ki of 46000 nM.

In data set [3], `O=C(O)C1(Cc2cc3ccc(F)cc3[nH]2)CSC(CC2c3ccccc3-c3ccccc32)=N1` (racemic) displayed a Ki of 320 nM. In addition, in the data set on HT-29 [5], it took 4.2 µM to reach half-maximal inhibition (IC50).

For `O=C(NC(Cc1cc2ccccc2[nH]1)C(=O)O)c1ccc2ccccc2c1` (centres undefined), the Ki in data set [3] was 1900 nM.

`O=C(N[C@H](Cc1nc2cc(F)ccc2[nH]1)C(=O)O)c1ccc2ccccc2c1`: in data set [3], the Ki came out at 80 nM.

For `O=C(O)C1(Cc2cc3ccc(F)cc3[nH]2)CSC(c2ccc3ccccc3c2)=N1` (racemic), the Activity is 18.7% in the data set with HT-29 [6], 10.2% with HT-29 [8], 5% with HT-29 [9] and 71.1% with HT-29 [10]. For the same compound, the result with HT-29 [7] was Active. The Ki in [3] stood at 1360 nM. This compound also had an IC50 in the data set with HT-29 [5] of 27 µM.

`O=C(N[C@H](Cc1nc2cc(F)ccc2[nH]1)C(=O)O)c1cc2ccccc2s1` yielded a Ki in data set [3] of 76 nM.

On to `O=C(NC(Cc1nc2ccccc2[nH]1)C(=O)O)c1ccc2ccccc2c1` (racemic), for which affinity in data set [3] was put at a Ki of 1000 nM.

In data set [3], `Cc1ccc2[nH]c(C[C@@H](NC(=O)c3cc4ccccc4s3)C(=O)O)nc2c1` came in with a Ki of 424 nM.

In the case of `O=C(O)C1(Cc2cc3ccc(F)cc3[nH]2)CSC(CCc2c(Cl)cccc2Cl)=N1` (racemic), affinity in data set [3] was put at a Ki of 196 nM. Besides, the IC50 in the data set with HT-29 [5] turned out to be 4.6 µM.

With `Cc1ccc2[nH]c(C[C@@H](NC(=O)c3ccc4ccccc4c3)C(=O)O)nc2c1`, the affinity in [3], expressed as Ki, was 780 nM.

Take `O=C(O)C1(Cc2cc3ccc(F)cc3[nH]2)CSC(/C=C/c2c(Cl)cccc2Cl)=N1` (racemic): the affinity in data set [3], expressed as Ki, was 580 nM. Also, the IC50 in the data set on HT-29 [5] came out at 1.9 µM.

`O=C(Cc1cccc2ccccc12)N[C@H](Cc1cc2ccc(F)cc2[nH]1)C(=O)O`: the logP in [1] was determined as 2.49. This compound showed a pKa in data set [2] of 3.91. The compound further registered a Ki in data set [3] of 400 nM. Also, the concentration in solution in data set [4] (solubility) was 106 µg/mL (≈ 272 µM).

Compound `O=C(N[C@H](Cc1cc2ccc(F)cc2[nH]1)C(=O)O)c1ccc2ccccc2c1` showed a logP in data set [1] of 2.59. The same compound had a pKa in data set [2] of 3.92. Besides, in [3], affinity was put at a Ki of 138 nM. Also, the solubility in data set [4] is > 120 µg/mL.

`O=C(NC(Cc1cc2ccccc2o1)C(=O)O)c1ccc2ccccc2c1` (centres undefined) returned a Ki in data set [3] of 10000 nM.
